For one data set, the target named is T1, mutant p53 (R273H) (Homo sapiens, UniProt P04637, R273H).
T1 construct: expressed in transfected cells; host or cells: PonA induced H1299 cells
The experiment in a line: Mutant p53 reactivation drug screening in PonA induced H1299 cells, DLS with PUMA-AuNP nano-dumbbell probes. Type of data set: cell-based. On the procedure: (§1) The ability to clearly distinguish wildtype p53 from mutant p53 in cell lysates provides the potential of the assay in accordance with the present embodiment for screening drugs that can effectively reactivate mutant p53 directly in cells and recovered the biological samples from cell lysates for detection. FIG. 9 depicts a schematic diagram 900 showing the process of mutant reactivation drug screening. Incubation of drug with live cancer cells expressing mutant p53 for reactivation is performed 910 (Step 1). The drug treated cells are then chemically lysed 920 (Step 2). The resultant cell lysates are next subjected 930 to incubation with p53-RE functionalized AuNP nano-dumbbell probes (Step 3). The obtained DLS readout allow evaluation of whether the drug applied has successfully reactivated mutant p53 to restore its binding affinity to RE. Failure in p53 reactivation will give rise to no change in the position of the DLS signal in accordance with the present embodiment.
(§2) Referring back to Step 1, drugs to be tested are first incubated 912 with live cancer cells expressing mutp53 proteins. Drugs are then uptaken 914 by the cells and interact with the mutp53 proteins. The drug treated cancer cells are subsequently lysed at Step 2 (920) to obtain crude cell lysates. These cell lysates are incubated with RE-AuNP probes and DLS is finally employed to evaluate the efficiency of mutp53 reactivation 932. If the reactivation is successful 934, the reactivated p53 protein will have a restored binding toward the RE, thus leading to increase in the diameter of the p53 RE-AuNP probes as measured 936 by DLS. In contrast, failure in reactivation 938 will not restore the binding of mutp53 protein to the RE sequence on the nano-dumbbell probes, thus no change in DLS signal is measured 940. Thus, the bioassay in accordance with the present embodiment is able to evaluate the extent of mutant reactivation by comparing the DLS signal obtained with the wtp53 binding to RE. The effective concentration of drugs for reactivation can also be determined by performing a series of concentration-dependent experiments during cell reactivation
However, the NSC drug has no effect at either low concentrations 1068 or high concentrations 1070 due to its specificity only to R175H mutant.

The target of the next data set is T2, mutant p53 (R175H) (Homo sapiens, UniProt P04637, R175H).
T2 construct: expressed in transfected cells; host or cells: PonA induced H1299 cells
The data set is described as above. Type of data set: cell-based. The method, then: as §1, §2
The bar graphs 1000, 1050 plot particle size along the y-axis 1004, 1054 and depict screening of mutant reactivation drugs.

For a further data set, the system named is wtp53 in HCT116 cells. In words: DLS detection with PUMA-AuNP nano-dumbbell probes of wtp53 expression level in drug treated HCT116 cell lysates. To be noted: HCT116 cell lysate after Mdm2 inhibitor treatment, mixed with PUMA-AuNP probes. Type of data set: cell-based. The source says:
Referring to FIG. 8, detection of wtp53 expression level in drug treated HCT116 cell lysates in accordance with the present embodiment is depicted in a bar graph 800. Besides the H1299 Ecdysone-Inducible cell lines, the effect of Mdm2 inhibitors such as nutlin 810, pm2 812, and vip82 814 on HCT116 cells was investigated. These inhibitors could inhibit Mdm2 targeted wtp53 degradation so that the wtp53 protein level in the HCT116 cell lysate will increase with the concentration of the drug applied. […] However, the extent of size increase is not as high as what was observed upon anticancer drug treatment presented. One possible explanation is that PUMA-AuNP nano-dumbbell probes are sensitive to detect activated wtp53 with enhanced binding to RE, whereas the over-expression of wtp53 may not enhance DNA binding.

The test system of a further data set is wildtype p53. In words: DLS detection with PUMA-AuNP nano-dumbbell probes of wtp53-RE binding in anticancer drug treated PonA induced H1299 cell lysates. The format is cell-based. The conditions noted are these: drug-treated PonA induced p53 H1299 cell lysate, versus untreated lysate. From the text: To investigate the applicability of the assay in accordance with the present embodiment to cell lysates, the H1299 Ecdysone-Inducible (EI) system for controllable and constitutive expression of p53 in H1299 cells induced by ponasterone A (PonA) was used. Referring to FIG. 7, bar graphs 700, 750 depict cell lysate analysis statistics in accordance with the present embodiment. The bar graph 700 plots size along the y-axis 704 and depicts wildtype p53 cell lysate 710 and three mutant p53 cell lysates: G245S 712, R273H 714 and R175H 716. The p53 null cell lysate (EI) 718, which serves as a negative control, gives negligible size shift from that of the PUMA-AuNP nano-dumbbell probes 720. Remarkably, clear distinctions between cell lysates with wtp53 710 and the DNA contact mutant retaining native structure (R273H) 714, the weakly stabilized mutant (G245S) 712 and the globally denatured mutant (R175H) 716 can be observed in the bar graph 700. Thus, it can be seen from the analytical results in the graph 700 that the bioassay in accordance with the present embodiment is not only sensitive and selective in the context of purified proteins but also applicable to highly complex biological samples.
Referring to FIG. 7B, the bar graph 750 plots size along the y-axis 754 and depicts detection of wildtype p53 in PonA induced p53 cell lysates 760 versus a […] cell lysate (EI) 762 (used together with the PUMA-AuNP nano-dumbbell probes 763 as a negative control), and an anticancer drug including ActD-treated 764, Dox-treated 766, and Etoposide-treated cell lysate 768.

A further data set deals with p53 (Homo sapiens, UniProt P04637). The experiment in a line: Dissociation constant (KD) of p53 for DNA promoter sequences (Table 1). Type of data set: binding. To be noted: concentration of p53 for 50% of the DNA to be bound; free dsDNA sequence. From the text: As aforestated, the p53 protein is a transcription factor which will bind specifically to DNA that contains RE sequences. In nature, wildtype p53 protein will bind to many promoter sequences and subsequently activate a wide range of genes for DNA repair, cell cycle arrest, apoptosis and its own degradation. As shown hereinabove, the bioassay in accordance with the present embodiment can be used for DNA selectivity study by conjugating different RE sequences to the AuNPs. However, it would be technically tedious to carry out conjugation for each DNA sequence and then screen for the binding affinity of a large number of promoter sequences. Therefore, a convenient competition assay which requires only one set of p53 RE-linked AuNPs has been designed in accordance with the present embodiment to evaluate the binding affinity of p53 protein to various promoter sequences listed in Table 1. This competition assay further allows the identification of the specific downstream pathway that is triggered upon p53 activation or reactivation, providing crucial information on the drug validation and outcome of the drug action.
The dissociation constant (KD) is defined as the concentration of p53 for 50% of the DNA to be bound. The lower the KD value, the stronger the binding affinity between wtp53 and the tested free DNA sequence. Thus, a smaller change in the size of the complex bound probes is expected due to the competitive binding of wtp53 between the free DNAs and conjugated RE sequences on AuNPs. […] Application of this assay to the activated or reactivated p53 proteins enables determination of which promoter sequence binds strongly and consequently identifies its downstream targets (apoptosis, cell cycle arrest or DNA repair).

Where [1] appears, read: high concentrations (++): COTI-2 1 μM, Prima-1^met 20 μM, NSC 3 μM.
[2] abbreviates: low concentrations (+): NSC 0.3 μM.

*1 amine or outer side, *2 acyl side, *3 side chain or, on linkers, in order; H or OH if unused. Where a SMILES comes first, the peptide text is derived from it. Bridges are numbered along the chain shown (N, C = ends). Roman numbers before positions name the chains, in order. [ ]: non-standard residue; d: D form. Actinocin(9to1) = Cc1c2oc3c(C)ccc(C(=O)[*:1])c3nc-2c(C(=O)[*:2])c(N)c1=O; NMeV = CN[C@H](C(=O)O)C(C)C; Sar = CNCC(=O)O

For the molecule `S=C(N/N=C1\CCCc2cccnc21)N1CCN(c2ccccn2)CC1` [COTI-2], the “reactivation of mutant p53 (R273H) to bind with PUMA-AuNP probes” value (“reactivation of mutant p53 (R273H)” below) is reported as “successful reactivation” at mutant p53 (R273H) (setting [1]) and “not at low concentrations” on mutant p53 (R273H) (setting [2]). The “reactivation of mutant p53 (R175H) to bind with PUMA-AuNP probes” value (from here on “reactivation of mutant p53 (R175H)”) is on record as “successful reactivation” on mutant p53 (R175H) (setting [1]) and “not at low concentrations” on mutant p53 (R175H) (setting [2]).
For `COc1ccc(C2=NC(c3ccc(Cl)cc3)C(c3ccc(Cl)cc3)N2C(=O)N2CCNC(=O)C2)c(OC(C)C)c1` (stereo not shown) [nutlin], the “wtp53 level in cell lysate detected by DLS size increase” value with wtp53 in HCT116 cells is listed as “increased wtp53 level”.
On to `COc1cccc2c1C(=O)c1c(O)c3c(c(O)c1C2=O)C[C@@](O)(C(=O)CO)C[C@@H]3O[C@H]1C[C@H](N)[C@H](O)[C@H](C)O1` [Dox, doxorubicin], for which, in the data set on wildtype p53, the “activation of wtp53 binding to the RE (DLS particle diameter of PUMA-AuNP probes)” value was “larger diameter”.
Same read-out and setting: the value for `COc1cc([C@@H]2c3cc4c(cc3[C@@H](O[C@@H]3O[C@@H]5CO[C@@H](C)O[C@H]5[C@H](O)[C@H]3O)[C@H]3COC(=O)[C@H]23)OCO4)cc(OC)c1O` [Etoposide, etoposide] was “larger diameter”.
For `CC(=NNC(=S)N1CC2CCC(CC2)C1)c1ccccn1` [NSC], the “reactivation of mutant p53 (R273H)” value at mutant p53 (R273H) (setting [1]) and at mutant p53 (R273H) (setting [2]) was “no effect” each time. For the same molecule, the “reactivation of mutant p53 (R175H)” value on mutant p53 (R175H) (setting [1]) and at mutant p53 (R175H) (setting [2]) was “shows effect” each time.
Regarding “Bax a: p53 promoter dsDNA sequence, gene function apoptosis (sense TCATTCACAAGTTAGAGACAAGCCTAGCTC; antisense GAGCTAGGCTTGTCTCTAACTTGTGAATGA; DNA, backbone not given here)”, in the data set with p53, the Kd was 73 ± 33 nM.
As to `Cc1c2oc3c(C)ccc(C(=O)N[C@@H]4C(=O)N[C@H](C(C)C)C(=O)N5CCC[C@H]5C(=O)N(C)CC(=O)N(C)[C@@H](C(C)C)C(=O)O[C@@H]4C)c3nc-2c(C(=O)N[C@@H]2C(=O)N[C@H](C(C)C)C(=O)N3CCC[C@H]3C(=O)N(C)CC(=O)N(C)[C@@H](C(C)C)C(=O)O[C@@H]2C)c(N)c1=O` [ActD, actinomycin D] (I: T[dV]P[Sar][NMeV] / II: T[dV]P[Sar][NMeV]; ester I:1-I:C, II:1-II:C; linker I:N-II:N via Actinocin(9to1)), the “activation of wtp53 binding to the RE (DLS particle diameter of PUMA-AuNP probes)” value in the data set on wildtype p53 was “larger diameter”.
Molecule “GADD45: p53 promoter dsDNA sequence, gene function DNA repair (sense ATCATGAACATGTCTAAGCATGCTGAGCTC; antisense GAGCTCAGCATGCTTAGACATGTTCATGAT; DNA, backbone not given here)” yielded a Kd in the data set with p53 of 7.7 ± 1.2 nM.
As to `COCC1(CO)C(=O)C2CCN1CC2` (stereo not shown) [Prima-1^met], the “reactivation of mutant p53 (R273H)” value at mutant p53 (R273H) (setting [1]) is recorded as “successful reactivation”; on mutant p53 (R273H) (setting [2]), “not at low concentrations”. Also, the “reactivation of mutant p53 (R175H)” value at mutant p53 (R175H) (setting [1]) is recorded as “successful reactivation”; at mutant p53 (R175H) (setting [2]), “not at low concentrations”.

B1: ConA: Artificial consensus p53-binding dsDNA sequence; positive control (nucleic acid)
sense: GTTAGAGGGGCATGTCCGGGCATGTCCGGGCAGA
antisense: CAATCTCCCCGTACAGGCCCGTACAGGCCCGTCT
modifications: chemistry not given here; one strand is listed 3' to 5'
notes: positive control
Regarding B1, the Kd with p53 came out at 3 nM.

Values taken from patent US20180172678A1, “Dynamic Light Scattering Nanoplatform For High-Throughput Drug Screening” (Agency for Science, Technology and Research, priority 2016, published 2018).
